# Source: the supplement of paper PMC4862054
# Tested on: BT-474
# Experiment: drug sensitivity score (DSS), CellTox Green (DSS (AUC-based score)); higher = stronger drug effect (viability inhibition or cytotoxicity); extreme values may be limits of the assay
# Conditions: incubation time: 72 h
# Summary of the method: (§1)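 After 72 h of incubation in 384-well plates with compound at 5 concentrations (10-fold steps, 10,000-fold range set per compound), breast cancer cell lines seeded in 20 µl suspension were read first for CellTox Green fluorescence at 485/520 nm. CellTiter-Glo luminescence was measured next, after 10 min at room temperature. Normalisation on each plate used 0.1 % DMSO and a positive kill control, and the drug sensitivity score was computed from the area under the fitted dose-response curve.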
row,SMILES,drug sensitivity score
1,CC(=O)[C@]1(O)Cc2c(O)c3c(c(O)c2[C@@H](O[C@H]2C[C@H](N)[C@H](O)[C@H](C)O2)C1)C(=O)c1ccccc1C3=O [Idarubicin],4.95
2,C/C(=C\c1csc(C)n1)[C@@H]1C[C@@H]2O[C@]2(C)CCC[C@H](C)[C@H](O)[C@@H](C)C(=O)C(C)(C)[C@@H](O)CC(=O)N1 [Ixabepilone],0
3,C=CCn1c(=O)c2cnc(Nc3ccc(N4CCN(C)CC4)cc3)nc2n1-c1cccc(C(C)(C)O)n1 [MK1775],6.62
4,CN(Cc1cnc2nc(N)nc(N)c2n1)c1ccc(C(=O)N[C@@H](CCC(=O)O)C(=O)O)cc1 [Methotrexate],0
5,CO[C@@]12[C@H](COC(N)=O)C3=C(C(=O)C(C)=C(N)C3=O)N1C[C@@H]1N[C@@H]12 [Mitomycin C],0
6,CCNC(=O)c1noc(-c2cc(C(C)C)c(O)cc2O)c1-c1ccc(CN2CCOCC2)cc1 [NVP-AUY922],3.93
7,Cc1cn(-c2cc(NC(=O)c3ccc(C)c(Nc4nccc(-c5cccnc5)n4)c3)cc(C(F)(F)F)c2)cn1 [Nilotinib],0
8,CC[C@H](CO)Nc1nc(NCc2ccccc2)c2ncn(C(C)C)c2n1 [Seliciclib],0
9,O=[N+]([O-])c1ccc2c(c1)S(=O)(=O)C=C2 [Stattic],15.9
10,O=C(CCCCCCC(=O)Nc1ccccc1)NO [Vorinostat],2.68

# Tested on: CAL-85-1
# Experiment: as above
# Conditions: incubation time: 72 h
# Summary of the method: as §1
row,SMILES,drug sensitivity score
1,CNC(=O)c1ccccc1Sc1ccc2c(/C=C/c3ccccn3)n[nH]c2c1 [Axitinib],0
2,COc1cc(Nc2c(C#N)cnc3cc(OCCCN4CCN(C)CC4)c(OC)cc23)c(Cl)cc1Cl [Bosutinib],8.13
3,CCN(CC)CCCC(C)Nc1ccnc2cc(Cl)ccc12 (stereo unspecified) [Chloroquine],7.92
4,CC1(COc2ccc3c(c2)ncn3-c2ccc3cccc(N4CCC(N)CC4)c3n2)COC1 [Crenolanib],6.6
5,CC(C)(C)c1nc(-c2cccc(NS(=O)(=O)c3c(F)cccc3F)c2F)c(-c2ccnc(N)n2)s1 [Dabrafenib],0
6,Cc1nc(C(=O)NCC(=O)O)c(O)c2ccc(Oc3ccccc3)cc12 [FG-4592],0
7,CC(C)(C)NC(=O)[C@H]1CC[C@H]2[C@@H]3CC[C@H]4NC(=O)C=C[C@]4(C)[C@H]3CC[C@]12C [Finasteride],0
8,Nc1ccn([C@@H]2O[C@H](CO)[C@@H](O)C2(F)F)c(=O)n1 [Gemcitabine],4.04
9,O=C(O)CNC(=O)c1c(O)c2ccccc2n(Cc2ccccc2)c1=O [IOX-2],0
10,CC(=O)[C@]1(O)Cc2c(O)c3c(c(O)c2[C@@H](O[C@H]2C[C@H](N)[C@H](O)[C@H](C)O2)C1)C(=O)c1ccccc1C3=O [Idarubicin],8.04
11,C/C(=C\c1csc(C)n1)[C@@H]1C[C@@H]2O[C@]2(C)CCC[C@H](C)[C@H](O)[C@@H](C)C(=O)C(C)(C)[C@@H](O)CC(=O)N1 [Ixabepilone],4.02
12,C=CCn1c(=O)c2cnc(Nc3ccc(N4CCN(C)CC4)cc3)nc2n1-c1cccc(C(C)(C)O)n1 [MK1775],16.5
13,CN(Cc1cnc2nc(N)nc(N)c2n1)c1ccc(C(=O)N[C@@H](CCC(=O)O)C(=O)O)cc1 [Methotrexate],0.579
14,CO[C@@]12[C@H](COC(N)=O)C3=C(C(=O)C(C)=C(N)C3=O)N1C[C@@H]1N[C@@H]12 [Mitomycin C],0
15,CCNC(=O)c1noc(-c2cc(C(C)C)c(O)cc2O)c1-c1ccc(CN2CCOCC2)cc1 [NVP-AUY922],9.49
16,Cc1cn(-c2cc(NC(=O)c3ccc(C)c(Nc4nccc(-c5cccnc5)n4)c3)cc(C(F)(F)F)c2)cn1 [Nilotinib],0
17,CC[C@H](CO)Nc1nc(NCc2ccccc2)c2ncn(C(C)C)c2n1 [Seliciclib],0
18,O=[N+]([O-])c1ccc2c(c1)S(=O)(=O)C=C2 [Stattic],19.7
19,O=C(CCCCCCC(=O)Nc1ccccc1)NO [Vorinostat],0

# Tested on: CAL-120
# Experiment: as above
# Conditions: incubation time: 72 h
# Summary of the method: as §1
row,SMILES,drug sensitivity score
1,CNC(=O)c1ccccc1Sc1ccc2c(/C=C/c3ccccn3)n[nH]c2c1 [Axitinib],0
2,COc1cc(Nc2c(C#N)cnc3cc(OCCCN4CCN(C)CC4)c(OC)cc23)c(Cl)cc1Cl [Bosutinib],0
3,CCN(CC)CCCC(C)Nc1ccnc2cc(Cl)ccc12 (stereo unspecified) [Chloroquine],4.62
4,CC1(COc2ccc3c(c2)ncn3-c2ccc3cccc(N4CCC(N)CC4)c3n2)COC1 [Crenolanib],0
5,CC(C)(C)c1nc(-c2cccc(NS(=O)(=O)c3c(F)cccc3F)c2F)c(-c2ccnc(N)n2)s1 [Dabrafenib],0
6,Cc1nc(C(=O)NCC(=O)O)c(O)c2ccc(Oc3ccccc3)cc12 [FG-4592],0
7,CC(C)(C)NC(=O)[C@H]1CC[C@H]2[C@@H]3CC[C@H]4NC(=O)C=C[C@]4(C)[C@H]3CC[C@]12C [Finasteride],0
8,Nc1ccn([C@@H]2O[C@H](CO)[C@@H](O)C2(F)F)c(=O)n1 [Gemcitabine],0
9,O=C(O)CNC(=O)c1c(O)c2ccccc2n(Cc2ccccc2)c1=O [IOX-2],0
10,CC(=O)[C@]1(O)Cc2c(O)c3c(c(O)c2[C@@H](O[C@H]2C[C@H](N)[C@H](O)[C@H](C)O2)C1)C(=O)c1ccccc1C3=O [Idarubicin],0
11,C/C(=C\c1csc(C)n1)[C@@H]1C[C@@H]2O[C@]2(C)CCC[C@H](C)[C@H](O)[C@@H](C)C(=O)C(C)(C)[C@@H](O)CC(=O)N1 [Ixabepilone],0
12,C=CCn1c(=O)c2cnc(Nc3ccc(N4CCN(C)CC4)cc3)nc2n1-c1cccc(C(C)(C)O)n1 [MK1775],4.54
13,CN(Cc1cnc2nc(N)nc(N)c2n1)c1ccc(C(=O)N[C@@H](CCC(=O)O)C(=O)O)cc1 [Methotrexate],0
14,CO[C@@]12[C@H](COC(N)=O)C3=C(C(=O)C(C)=C(N)C3=O)N1C[C@@H]1N[C@@H]12 [Mitomycin C],0
15,CCNC(=O)c1noc(-c2cc(C(C)C)c(O)cc2O)c1-c1ccc(CN2CCOCC2)cc1 [NVP-AUY922],0.256
16,Cc1cn(-c2cc(NC(=O)c3ccc(C)c(Nc4nccc(-c5cccnc5)n4)c3)cc(C(F)(F)F)c2)cn1 [Nilotinib],0
17,CC[C@H](CO)Nc1nc(NCc2ccccc2)c2ncn(C(C)C)c2n1 [Seliciclib],0
18,O=[N+]([O-])c1ccc2c(c1)S(=O)(=O)C=C2 [Stattic],2.06
19,O=C(CCCCCCC(=O)Nc1ccccc1)NO [Vorinostat],2.58

# Tested on: CAL-51
# Experiment: as above
# Conditions: incubation time: 72 h
# Summary of the method: as §1
row,SMILES,drug sensitivity score
1,CNC(=O)c1ccccc1Sc1ccc2c(/C=C/c3ccccn3)n[nH]c2c1 [Axitinib],6.53
2,COc1cc(Nc2c(C#N)cnc3cc(OCCCN4CCN(C)CC4)c(OC)cc23)c(Cl)cc1Cl [Bosutinib],5.81
3,CCN(CC)CCCC(C)Nc1ccnc2cc(Cl)ccc12 (stereo unspecified) [Chloroquine],3.75
4,CC1(COc2ccc3c(c2)ncn3-c2ccc3cccc(N4CCC(N)CC4)c3n2)COC1 [Crenolanib],4.42
5,CC(C)(C)c1nc(-c2cccc(NS(=O)(=O)c3c(F)cccc3F)c2F)c(-c2ccnc(N)n2)s1 [Dabrafenib],0
6,Cc1nc(C(=O)NCC(=O)O)c(O)c2ccc(Oc3ccccc3)cc12 [FG-4592],0
7,CC(C)(C)NC(=O)[C@H]1CC[C@H]2[C@@H]3CC[C@H]4NC(=O)C=C[C@]4(C)[C@H]3CC[C@]12C [Finasteride],0
8,Nc1ccn([C@@H]2O[C@H](CO)[C@@H](O)C2(F)F)c(=O)n1 [Gemcitabine],13.4
9,O=C(O)CNC(=O)c1c(O)c2ccccc2n(Cc2ccccc2)c1=O [IOX-2],0
10,CC(=O)[C@]1(O)Cc2c(O)c3c(c(O)c2[C@@H](O[C@H]2C[C@H](N)[C@H](O)[C@H](C)O2)C1)C(=O)c1ccccc1C3=O [Idarubicin],9.49
11,C/C(=C\c1csc(C)n1)[C@@H]1C[C@@H]2O[C@]2(C)CCC[C@H](C)[C@H](O)[C@@H](C)C(=O)C(C)(C)[C@@H](O)CC(=O)N1 [Ixabepilone],11.7
12,C=CCn1c(=O)c2cnc(Nc3ccc(N4CCN(C)CC4)cc3)nc2n1-c1cccc(C(C)(C)O)n1 [MK1775],15.7
13,CN(Cc1cnc2nc(N)nc(N)c2n1)c1ccc(C(=O)N[C@@H](CCC(=O)O)C(=O)O)cc1 [Methotrexate],0
14,CO[C@@]12[C@H](COC(N)=O)C3=C(C(=O)C(C)=C(N)C3=O)N1C[C@@H]1N[C@@H]12 [Mitomycin C],17.2
15,CCNC(=O)c1noc(-c2cc(C(C)C)c(O)cc2O)c1-c1ccc(CN2CCOCC2)cc1 [NVP-AUY922],6.99
16,Cc1cn(-c2cc(NC(=O)c3ccc(C)c(Nc4nccc(-c5cccnc5)n4)c3)cc(C(F)(F)F)c2)cn1 [Nilotinib],0
17,CC[C@H](CO)Nc1nc(NCc2ccccc2)c2ncn(C(C)C)c2n1 [Seliciclib],0
18,O=[N+]([O-])c1ccc2c(c1)S(=O)(=O)C=C2 [Stattic],16.9
19,O=C(CCCCCCC(=O)Nc1ccccc1)NO [Vorinostat],6.5

# Tested on: HCC1143
# Experiment: as above
# Conditions: incubation time: 72 h
# Summary of the method: as §1
row,SMILES,drug sensitivity score
1,CNC(=O)c1ccccc1Sc1ccc2c(/C=C/c3ccccn3)n[nH]c2c1 [Axitinib],0
2,COc1cc(Nc2c(C#N)cnc3cc(OCCCN4CCN(C)CC4)c(OC)cc23)c(Cl)cc1Cl [Bosutinib],0
3,CCN(CC)CCCC(C)Nc1ccnc2cc(Cl)ccc12 (stereo unspecified) [Chloroquine],0
4,CC1(COc2ccc3c(c2)ncn3-c2ccc3cccc(N4CCC(N)CC4)c3n2)COC1 [Crenolanib],1.14
5,CC(C)(C)c1nc(-c2cccc(NS(=O)(=O)c3c(F)cccc3F)c2F)c(-c2ccnc(N)n2)s1 [Dabrafenib],0
6,Cc1nc(C(=O)NCC(=O)O)c(O)c2ccc(Oc3ccccc3)cc12 [FG-4592],0
7,CC(C)(C)NC(=O)[C@H]1CC[C@H]2[C@@H]3CC[C@H]4NC(=O)C=C[C@]4(C)[C@H]3CC[C@]12C [Finasteride],0
8,Nc1ccn([C@@H]2O[C@H](CO)[C@@H](O)C2(F)F)c(=O)n1 [Gemcitabine],0
9,O=C(O)CNC(=O)c1c(O)c2ccccc2n(Cc2ccccc2)c1=O [IOX-2],0
10,CC(=O)[C@]1(O)Cc2c(O)c3c(c(O)c2[C@@H](O[C@H]2C[C@H](N)[C@H](O)[C@H](C)O2)C1)C(=O)c1ccccc1C3=O [Idarubicin],0
11,C/C(=C\c1csc(C)n1)[C@@H]1C[C@@H]2O[C@]2(C)CCC[C@H](C)[C@H](O)[C@@H](C)C(=O)C(C)(C)[C@@H](O)CC(=O)N1 [Ixabepilone],0
12,C=CCn1c(=O)c2cnc(Nc3ccc(N4CCN(C)CC4)cc3)nc2n1-c1cccc(C(C)(C)O)n1 [MK1775],3.3
13,CN(Cc1cnc2nc(N)nc(N)c2n1)c1ccc(C(=O)N[C@@H](CCC(=O)O)C(=O)O)cc1 [Methotrexate],1.72
14,CO[C@@]12[C@H](COC(N)=O)C3=C(C(=O)C(C)=C(N)C3=O)N1C[C@@H]1N[C@@H]12 [Mitomycin C],1.5
15,CCNC(=O)c1noc(-c2cc(C(C)C)c(O)cc2O)c1-c1ccc(CN2CCOCC2)cc1 [NVP-AUY922],0
16,Cc1cn(-c2cc(NC(=O)c3ccc(C)c(Nc4nccc(-c5cccnc5)n4)c3)cc(C(F)(F)F)c2)cn1 [Nilotinib],0
17,CC[C@H](CO)Nc1nc(NCc2ccccc2)c2ncn(C(C)C)c2n1 [Seliciclib],0
18,O=[N+]([O-])c1ccc2c(c1)S(=O)(=O)C=C2 [Stattic],6.3
19,O=C(CCCCCCC(=O)Nc1ccccc1)NO [Vorinostat],1.23
